In ChEMBL document CHEMBL3352333, “Structural evidence of N6-isopentenyladenosine as a new ligand of farnesyl pyrophosphate synthase” (J Med Chem, 2014) one finds Activity and Kd data, which are given here for one molecule.

Calls of active or inactive are those of the source. No cut-off for these calls is given here.

The target of assay [1] is T1, Farnesyl pyrophosphate synthase (Homo sapiens) (UniProt P14324).
T1 sequence (whole entry): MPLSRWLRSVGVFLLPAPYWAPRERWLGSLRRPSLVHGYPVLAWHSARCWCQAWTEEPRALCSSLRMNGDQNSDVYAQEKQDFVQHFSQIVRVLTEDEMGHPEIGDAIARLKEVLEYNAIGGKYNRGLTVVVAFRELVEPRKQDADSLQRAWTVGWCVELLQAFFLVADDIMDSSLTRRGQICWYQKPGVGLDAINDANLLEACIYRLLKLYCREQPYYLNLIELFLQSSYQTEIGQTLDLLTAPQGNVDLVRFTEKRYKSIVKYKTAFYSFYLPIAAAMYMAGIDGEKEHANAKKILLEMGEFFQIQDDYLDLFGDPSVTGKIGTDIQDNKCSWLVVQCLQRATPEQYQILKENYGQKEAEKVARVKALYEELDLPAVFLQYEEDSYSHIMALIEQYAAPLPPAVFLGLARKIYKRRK
In words: Binding affinity to FPPS (unknown origin) expressed in Escherichia coli BL21(DEscherichia ) at protein/ligand 1:10 to 1:100 molar ratio by WaterLOGSY 1D 1H NMR analysis.

The target in assay [2] is T1, Farnesyl pyrophosphate synthase (Homo sapiens). In words: Binding affinity to FPPS (unknown origin) expressed in Escherichia coli BL21(DEscherichia ) at protein/ligand 1:10 to 1:100 molar ratio by 2D COSY NMR analysis.
Assay [3] shares this target. In words: Binding affinity to FPPS (unknown origin) expressed in Escherichia coli BL21(DEscherichia ) at protein/ligand 1:10 to 1:100 molar ratio by saturation transfer difference NMR analysis.
Assay [4] deals with T2, Farnesyl pyrophosphate synthase (Homo sapiens, UniProt P14324).
T2 sequence (P14324 whole entry): T1 sequence (whole entry)
In words: Binding affinity to FPPS (unknown origin) expressed in Escherichia coli BL21(DEscherichia ) assessed as binding constant of proton H12 of isopentenylic moiety by saturation transfer difference NMR analysis.

Assay [5] concerns the target T2, Farnesyl pyrophosphate synthase. In words: Binding affinity to FPPS (unknown origin) expressed in Escherichia coli BL21(DEscherichia ) assessed as binding constant of proton H14-H15 of isopentenylic moiety by saturation transfer difference NMR analysis.
Assay [6] shares this target. In words: Binding affinity to FPPS (unknown origin) expressed in Escherichia coli BL21(DEscherichia ) assessed as binding constant of proton H11 of isopentenylic moiety by saturation transfer difference NMR analysis.
Assay [7] shares this target. In words: Binding affinity to FPPS (unknown origin) expressed in Escherichia coli BL21(DEscherichia ) assessed as binding constant of proton H2/H8 of purine ring by saturation transfer difference NMR analysis.
Assay [8] concerns the target T1, Farnesyl pyrophosphate synthase (Homo sapiens). In words: Binding affinity to FPPS (unknown origin) expressed in Escherichia coli BL21(DEscherichia ) at protein/ligand 1:10 to 1:100 molar ratio by WaterLOGSY NMR analysis.

By Kd is commonly meant the concentration at which binding is half-saturated. For `CC(C)=CCNc1ncnc2c1ncn2[C@@H]1O[C@H](CO)[C@@H](O)[C@H]1O` [RIBOPRINE], the outcome in assay [1], in assay [2], in assay [3] and in assay [8] was Active. Besides, the Kd in assay [4] stood at 2210 µM; in assay [5], 1210 µM; in assay [6] it was 550 µM; in assay [7], 2020 µM.
